What was measured:
[1] = Cytotoxicity against Balb/c mouse peritoneal macrophage assessed as cell viability measured after 72 hrs by alamar blue assay; assay type: tissue-based; conditions: peritoneal macrophages
Leishmania amazonensis = experiment: Antiparasitic activity against intracellular Leishmania amazonensis amastigotes infected in mouse peritoneal macrophage measured after 72 hrs; assay type: functional, organism-based
[2] = Selectivity index, ratio of CC50 for mouse peritoneal macrophages to IC50 for Leishmania amazonensis amastigotes infected in BALB/c mouse peritoneal macrophages; assay type: toxicity; conditions: read-out: Ratio CC50/IC50
Trypanosoma cruzi = experiment: Antiparasitic activity against intracellular Trypanosoma cruzi amastigotes infected in mouse peritoneal macrophage measured after 72 hrs; assay type: functional, organism-based
[3] = Selectivity index, ratio of CC50 for mouse peritoneal macrophages to IC50 for Trypanosoma cruzi amastigotes infected in BALB/c mouse peritoneal macrophages; assay type: toxicity; conditions: read-out: Ratio CC50/IC50

With `COc1cc(O)cc2c1[C@@H](/C=C/c1ccc(O)cc1)[C@@H]1[C@@H](c3ccccc3)Oc3cc(O)cc(OC)c3[C@@H]1O2` the CC50 at 72 h [1] was > 20 µM and the IC50 (Leishmania amazonensis) was > 20 µM.
With `COc1ccc(/C=C/[C@@H]2c3c(OC)cc(O)cc3O[C@H]3c4c(OC)cc(O)cc4O[C@H](c4ccccc4)[C@@H]23)cc1` the CC50 at 72 h [1] was > 20 µM, the IC50 (Leishmania amazonensis) was 2.2 µM and the selectivity ratio [2] was 9.1.
With `COc1cc(O)cc2c1[C@@H](/C=C/c1ccccc1)[C@@H]1[C@@H](c3ccccc3)Oc3cc(O)cc(OC)c3[C@@H]1O2` the CC50 at 72 h [1] was > 20 µM, the IC50 (Leishmania amazonensis) was 6.3 µM and the selectivity ratio [2] was 3.2.
With `COc1ccc(/C=C/[C@@H]2c3c(OC)cc(O)c(Br)c3O[C@H]3c4c(OC)cc(O)c(Br)c4O[C@H](c4ccccc4)[C@@H]23)cc1` the IC50 (Trypanosoma cruzi) was 4.7 µM, the CC50 at 72 h [1] was > 100 µM and the IC50 (Leishmania amazonensis) was 3.6 µM. For the same molecule, the selectivity ratio [2] was > 28 and the selectivity ratio [3] was > 21.
With `COc1ccc(/C=C/[C@@H]2c3c(OC)cc(O)c(Cl)c3O[C@H]3c4c(OC)cc(O)c(Cl)c4O[C@H](c4ccccc4)[C@@H]23)cc1` the IC50 (Trypanosoma cruzi) was 2.2 µM, the CC50 at 72 h [1] was > 100 µM and the IC50 (Leishmania amazonensis) was 3.4 µM. The selectivity ratio [2] was > 29 and the selectivity ratio [3] was > 45.
In the case of `COc1cc(O)c(I)c2c1[C@@H](/C=C/c1ccccc1)[C@@H]1[C@@H](c3ccccc3)Oc3cc(O)cc(OC)c3[C@@H]1O2`, the IC50 (Trypanosoma cruzi) is reported as 1.9 µM, the CC50 at 72 h [1] is reported as > 100 µM and the IC50 (Leishmania amazonensis) is reported as > 10 µM. The selectivity ratio [3] was > 53.
With `COc1cc(O)c(Br)c2c1[C@@H](/C=C/c1ccccc1)[C@@H]1[C@@H](c3ccccc3)Oc3c(Br)c(O)cc(OC)c3[C@@H]1O2` the IC50 (Trypanosoma cruzi) was 1.6 µM, the CC50 at 72 h [1] was > 100 µM and the IC50 (Leishmania amazonensis) was 1.7 µM. For the same molecule, the selectivity ratio [2] was > 59 and the selectivity ratio [3] was > 63.
With `COc1ccc(/C=C/[C@@H]2c3c(OC)cc(O)cc3O[C@H]3c4c(OC)cc(O)c(I)c4O[C@H](c4ccccc4)[C@@H]23)cc1` the IC50 (Trypanosoma cruzi) was 1.6 µM, the CC50 at 72 h [1] was > 100 µM and the IC50 (Leishmania amazonensis) was 5.4 µM. For the same molecule, the selectivity ratio [2] was > 19 and the selectivity ratio [3] was > 63.
In the case of `COc1ccc(/C=C/[C@@H]2c3c(OC)cc(O)c(Cl)c3O[C@H]3c4c(OC)cc(O)cc4O[C@H](c4ccccc4)[C@@H]23)cc1`, the IC50 (Trypanosoma cruzi) is reported as 1.4 µM, the CC50 at 72 h [1] is reported as > 100 µM and the IC50 (Leishmania amazonensis) is reported as > 10 µM. For the same molecule, the selectivity ratio [3] was > 71.
In the case of `COc1cc(O)c(Br)c2c1[C@@H]1Oc3c(Br)c(O)c(Br)c(OC)c3[C@@H](/C=C/c3ccc(O)cc3)[C@@H]1[C@@H](c1ccccc1)O2`, the IC50 (Trypanosoma cruzi) is reported as > 10 µM, the CC50 at 72 h [1] is reported as > 100 µM and the IC50 (Leishmania amazonensis) is reported as 6.5 µM. The selectivity ratio [2] was > 15.
With `COc1cc(O)c(I)c2c1[C@@H](/C=C/c1ccc(O)cc1)[C@@H]1[C@@H](c3ccccc3)Oc3c(I)c(O)cc(OC)c3[C@@H]1O2` the IC50 (Trypanosoma cruzi) was 1.8 µM, the CC50 at 72 h [1] was > 100 µM and the IC50 (Leishmania amazonensis) was 7.8 µM. For the same molecule, the selectivity ratio [2] was > 13 and the selectivity ratio [3] was > 56.
In the case of `COc1cc(O)c(I)c2c1[C@@H](/C=C/c1ccccc1)[C@@H]1[C@@H](c3ccccc3)Oc3c(I)c(O)cc(OC)c3[C@@H]1O2`, the IC50 (Trypanosoma cruzi) is reported as 6.5 µM, the CC50 at 72 h [1] is reported as > 100 µM and the IC50 (Leishmania amazonensis) is reported as 3.9 µM. For the same molecule, the selectivity ratio [2] was > 26 and the selectivity ratio [3] was > 15.
For `COc1cc(O)c(Br)c2c1[C@@H](/C=C/c1ccc(O)cc1)[C@@H]1[C@@H](c3ccccc3)Oc3c(Br)c(O)cc(OC)c3[C@@H]1O2`, the IC50 (Trypanosoma cruzi) was 8.3 µM, the CC50 at 72 h [1] was > 100 µM and the IC50 (Leishmania amazonensis) was 2.5 µM. The selectivity ratio [2] was > 40 and the selectivity ratio [3] was > 12.
For `COc1ccc(/C=C/[C@@H]2c3c(OC)c(Br)c(O)c(Br)c3O[C@H]3c4c(OC)cc(O)c(Br)c4O[C@H](c4ccccc4)[C@@H]23)cc1`, the IC50 (Trypanosoma cruzi) was 3.8 µM, the CC50 at 72 h [1] was > 100 µM and the IC50 (Leishmania amazonensis) was 4.5 µM. For the same molecule, the selectivity ratio [2] was > 22 and the selectivity ratio [3] was > 26.
In the case of `COc1ccc(/C=C/[C@@H]2c3c(OC)cc(O)c(I)c3O[C@H]3c4c(OC)cc(O)c(I)c4O[C@H](c4ccccc4)[C@@H]23)cc1`, the IC50 (Trypanosoma cruzi) is reported as 2.5 µM, the CC50 at 72 h [1] is reported as > 100 µM and the IC50 (Leishmania amazonensis) is reported as 4.7 µM. The selectivity ratio [2] was > 21 and the selectivity ratio [3] was > 40.
In the case of `COc1cc(O)c(Br)c2c1[C@@H]1Oc3c(Br)c(O)c(Br)c(OC)c3[C@@H](/C=C/c3ccccc3)[C@@H]1[C@@H](c1ccccc1)O2`, the IC50 (Trypanosoma cruzi) is reported as 2.9 µM, the CC50 at 72 h [1] is reported as > 100 µM and the IC50 (Leishmania amazonensis) is reported as 1 µM. For the same molecule, the selectivity ratio [2] was > 100 and the selectivity ratio [3] was > 34.
For `COc1ccc(/C=C/[C@@H]2c3c(OC)cc(O)c(Br)c3O[C@H]3c4c(OC)cc(O)cc4O[C@H](c4ccccc4)[C@@H]23)cc1`, the IC50 (Trypanosoma cruzi) was 3.6 µM, the CC50 at 72 h [1] was > 100 µM and the IC50 (Leishmania amazonensis) was 3.3 µM. The selectivity ratio [2] was > 30 and the selectivity ratio [3] was > 28.
In the case of `COc1cc(O)c(Cl)c2c1[C@@H](/C=C/c1ccccc1)[C@@H]1[C@@H](c3ccccc3)Oc3cc(O)cc(OC)c3[C@@H]1O2`, the IC50 (Trypanosoma cruzi) is reported as 1.4 µM, the CC50 at 72 h [1] is reported as > 100 µM and the IC50 (Leishmania amazonensis) is reported as 1.2 µM. For the same molecule, the selectivity ratio [2] was > 83 and the selectivity ratio [3] was > 71.
For `C[C@@H]1[C@H](O)[C@@H](C)/C=C/C=C/C=C/C=C/C=C/C=C/C=C/[C@H](O[C@@H]2O[C@H](C)[C@@H](O)[C@H](N)[C@@H]2O)C[C@@H]2O[C@](O)(C[C@@H](O)C[C@@H](O)[C@H](O)CC[C@@H](O)C[C@@H](O)CC(=O)O[C@H]1C)C[C@H](O)[C@H]2C(=O)O` [AMPHOTERICIN B], the CC50 at 72 h [1] was > 50 µM, the IC50 (Leishmania amazonensis) was 0.2 µM and the selectivity ratio [2] was > 217.
In the case of `O=C(Cn1ccnc1[N+](=O)[O-])NCc1ccccc1` [BENZNIDAZOLE], the IC50 (Trypanosoma cruzi) is reported as 1.4 µM, the CC50 at 72 h [1] is reported as > 100 µM and the selectivity ratio [3] is reported as > 35.

From ChEMBL document CHEMBL4699490, “Production of Highly Active Antiparasitic Compounds from the Controlled Halogenation of the Arrabidaea brachypoda Crude Plant Extract” (J Nat Prod, 2020)
